This assay deals with Candida strains (clinical isolates from patients suffering from Candidal vaginitis). As to the kind of experiment: Inhibition of Candida growth in broth pH 4.5 (turbidity after 72 hours). Type of assay: cell-based. Particulars: for Candida growth, Strain 1: Strain 1, 37.5° C.; for Candida growth, Strain 2: Strain 2, 37.5° C.; for Candida growth, Strain 3: Strain 3, 37.5° C.; for Candida growth, Strain 4: Strain 4, 37.5° C.; for Candida growth, Strain 5: Strain 5, 37.5° C.; for Candida growth, Strain 6: Strain 6, 37.5° C.; for Candida growth, Strain 7: Strain 7, 37.5° C.; for Candida growth, Strain 8: Strain 8, 37.5° C.; for Candida growth, Strain 9: Strain 9, 37.5° C.; for Candida growth, Strain 10: Strain 10, 37.5° C.; for Candida growth, Strain 11: Strain 11, 37.5° C.; for number of the 11 Candida strains that grew: of 11 strains. From the text:
1. […] Unless otherwise illustrated, the solutions in the experiments are all aqueous solutions. 2. Experimental Method: (1) Experimental Materials:
a) Experimental strains: 11 Candida strains, all of which were screened from the clinical isolates from patients suffering from Candidal vaginitis, and were capable of growing in broth comprising 0.025% (w/v) sodium benzoate.
b) Broth: 1% yeast extract powder, 9% sucrose, 0.025% Manganese sulfate (MnSO4.4H2O), 0.058% Magnesium sulphate (MgSO4.7H2O), and 0.9% lactic acid, wherein the pH value was adjusted to 4.5 and the broth was sterilized for use;
(2) Experimental Grouping:
The requirements for aseptic technique were strictly followed to prepare the following groups of sterile test tubes: • a) sodium benzoate group: a test tube containing 5 ml broth, to which 0.025% (w/v) sodium benzoate was added; • b) sodium benzoate+sodium dehydroacetate group: 6 test tubes each containing 5 ml broth, wherein 0.0025% (w/v), 0.005% (w/v), and 0.01% (w/v) sodium dehydroacetate were added to three tubes, respectively; 0.025% (w/v) sodium benzoate was added to each of the rest 3 tubes, and then 0.0025% (w/v), 0.005% (w/v), 0.01% (w/v) sodium dehydroacetate were added to them, respectively; • c) sodium benzoate+sodium propionate group: 6 test tubes each containing 5 ml broth, wherein 0.0625% (w/v), 0.125% (w/v), and 0.25% (w/v) sodium propionate were added to three tubes, respectively; 0.025% (w/v) sodium benzoate was added to each of the rest 3 tubes, and then 0.0625% (w/v), 0.125% (w/v), and 0.25% (w/v) sodium propionate were added to them, respectively; • d) sodium benzoate+potassium sorbate group: 6 test tubes each containing 5 ml broth, wherein 0.00625% (w/v), 0.0125% (w/v), and 0.025% (w/v) potassium sorbate were added to 3 tubes, respectively; 0.025% (w/v) sodium benzoate was added to each of the rest 3 tubes, and then 0.00625% (w/v), 0.0125% (w/v), and 0.025% (w/v) potassium sorbate were added to them, respectively; • e) sodium benzoate+Ethylparaben: 6 test tubes each containing 5 ml broth, wherein 0.0125% (w/v), 0.025% (w/v), and 0.05% (w/v) Ethylparaben were added to 3 tubes, respectively; 0.025% (w/v) sodium benzoate was added to each of the rest 3 tubes, and then 0.0125% (w/v), 0.025% (w/v), and 0.05% (w/v) Ethylparaben were added to them, respectively; • f) Positive control: a broth-containing test tube with Candida but without sodium benzoate, sodium dehydroacetate, sodium propionate, sorbic acid, or Ethylparaben. • g) Negative control: a broth-containing test tube without Candida, sodium benzoate, sodium dehydroacetate, sodium propionate, sorbic acid, or Ethylparaben; (3) Experimental Methods:
The Candidal suspensions were prepared under stringent aseptic manipulation techniques. The colonies of various Candidal strains were diluted with saline, respectively. The turbidity was adjusted with a turbiditor to 0.5M (about 10^8CFU/ml), and then 1 ml 0.5M bacterial solution was added to 9 ml broth and was 10 times diluted, so that each Candidal suspension comprised Candidal organisms at 10^7CFU/ml.
Under stringent aseptic manipulation techniques, 100 μl bacterial solution thus prepared was added to each of the aforesaid a˜f test tubes and the positive control tube, and no bacterial solution was added to the negative control tube g.
These tubes were incubated in a biochemical incubator at 37.5° C. for 72 hours. The turbidity of the test tubes were observed and recorded.

Each structure is given as a SMILES string.

Regarding `CC(=O)c1c([O-])cc(C)oc1=O.[Na+]` [0.0025% sodium dehydroacetate, sodium dehydroacetate], the “Candida growth, Strain 1” value was “+”; the “Candida growth, Strain 2” value was “+”; the “Candida growth, Strain 3” value is listed as “+”; the “Candida growth, Strain 4” value was “+”. Moreover, the “Candida growth, Strain 5” value is “−”; the “Candida growth, Strain 6” value is listed as “+”; the “Candida growth, Strain 7” value is “+”; the “Candida growth, Strain 8” value is on record as “+”. The “Candida growth, Strain 9” value is reported as “+”; the “Candida growth, Strain 10” value is “+”; the “Candida growth, Strain 11” value is listed as “+”. Under “listed as 0.0025% (w/v) sodium dehydroacetate”, the “number of the 11 Candida strains that grew” value (from here on “number”) worked out at 10.
As for `CCC(=O)[O-].[Na+]` [0.25% sodium propionate, sodium propionate], the “Candida growth, Strain 1” value was “−”; the “Candida growth, Strain 2” value is on record as “−”; the “Candida growth, Strain 3” value was “+”; the “Candida growth, Strain 4” value is recorded as “+”. For the same molecule, the “Candida growth, Strain 5” value was “−”; the “Candida growth, Strain 6” value is “−”; the “Candida growth, Strain 7” value is “+”; the “Candida growth, Strain 8” value is listed as “+”. The “Candida growth, Strain 9” value is “−”; the “Candida growth, Strain 10” value is listed as “+”; the “Candida growth, Strain 11” value is on record as “−”. The “number” value (listed as 0.25% (w/v) sodium propionate) is 5.
Consider `C/C=C/C=C/C(=O)[O-].[K+]` [0.00625% potassium sorbate, potassium sorbate], for which the “Candida growth, Strain 1” value is “+”; the “Candida growth, Strain 2” value was “+”; the “Candida growth, Strain 3” value is reported as “+”; the “Candida growth, Strain 4” value is on record as “+”. For the same molecule, the “Candida growth, Strain 5” value is “+”; the “Candida growth, Strain 6” value is on record as “+”; the “Candida growth, Strain 7” value is reported as “+”; the “Candida growth, Strain 8” value is recorded as “+”. Moreover, the “Candida growth, Strain 9” value is on record as “−”; the “Candida growth, Strain 10” value is given as “+”; the “Candida growth, Strain 11” value is listed as “+”. Further, the “number” value (listed as 0.00625% (w/v) potassium sorbate) is 10.
With `C/C=C/C=C/C(=O)[O-].[K+]` [0.0125% potassium sorbate, potassium sorbate], the “Candida growth, Strain 1” value is on record as “+”; the “Candida growth, Strain 2” value is on record as “−”; the “Candida growth, Strain 3” value was “+”; the “Candida growth, Strain 4” value is given as “+”. Moreover, the “Candida growth, Strain 5” value is reported as “+”; the “Candida growth, Strain 6” value is listed as “+”; the “Candida growth, Strain 7” value is on record as “+”; the “Candida growth, Strain 8” value is recorded as “+”. Besides, the “Candida growth, Strain 9” value is “−”; the “Candida growth, Strain 10” value is “+”; the “Candida growth, Strain 11” value is listed as “+”.
In the case of `CCOC(=O)c1ccc(O)cc1` [0.025% Ethylparaben, Ethylparaben], the “Candida growth, Strain 1” value is “+”; the “Candida growth, Strain 2” value is “+”; the “Candida growth, Strain 3” value is reported as “+”; the “Candida growth, Strain 4” value was “+”. Also, the “Candida growth, Strain 5” value is “+”; the “Candida growth, Strain 6” value is on record as “+”; the “Candida growth, Strain 7” value is recorded as “+”; the “Candida growth, Strain 8” value is on record as “+”. The “Candida growth, Strain 9” value is “+”; the “Candida growth, Strain 10” value is on record as “+”; the “Candida growth, Strain 11” value is “+”.
For `C/C=C/C=C/C(=O)[O-].[K+]` [0.025% potassium sorbate, potassium sorbate], the “Candida growth, Strain 1” value is “+”; the “Candida growth, Strain 2” value is “−”; the “Candida growth, Strain 3” value is listed as “+”; the “Candida growth, Strain 4” value is “+”. In addition, the “Candida growth, Strain 5” value is recorded as “+”; the “Candida growth, Strain 6” value is recorded as “+”; the “Candida growth, Strain 7” value is on record as “+”; the “Candida growth, Strain 8” value is “+”. In addition, the “Candida growth, Strain 9” value is “−”; the “Candida growth, Strain 10” value is given as “+”; the “Candida growth, Strain 11” value is on record as “+”. The “number” value (listed as 0.025% (w/v) potassium sorbate) is on record as 9.

For the origin of these results see patent US8765819B2, “Composition comprising benzoic acid in combination with organic acid preservatives as active ingredients and the use thereof” (priority 2009, dated 2014).
